Source: patent US12070472B2, “Treatment of drug resistant proliferative diseases with telomerase mediated telomere altering compounds” (The Board of Regents of the University of Texas System, priority 2016, dated 2024)

How the values were obtained:
HCT116 = assay: GI 50 determination, HCT116; assay type: cell-based; conditions: Homo sapiens, HCT-116
Description: (§1) Cells of each type listed in Table 2 were seeded in chamber slides.

HCC827 = assay: GI 50 determination, HCC827; assay type: cell-based; conditions: Homo sapiens
Description: as §1

H1819 = assay: 6-thio-dG on H1819 parental and paclitaxel/carboplatin resistant lines; assay type: cell-based, human; conditions: 1, 3, 10 μM
Description: (§2) The resulting resistant lines and their parents were tested for the effect of 6-thio-dG at 1, 3, and 10 μM concentrations.

HCC4017 = assay: GI 50 determination, HCC4017; assay type: cell-based; conditions: Homo sapiens
Description: as §1

H2009 = assay: GI 50 determination, H2009; assay type: cell-based; conditions: Homo sapiens, NCI-H2009
Description: as §1

H324 = assay: NSCLC panel sensitivity to 6-thio-dG, H324; assay type: cell-based; conditions: Homo sapiens
Description: (§3) A panel of NSCLC cell lines was tested for sensitivity to 6-thio-dG by performing a cell count after 1 week treatment. Briefly, cells were treated with 3 μM 6-thio-dG every three days for 1 week. Viable cells were counted at the end of treatment. Each 6-thiodG treated cell line was normalized to its DMSO treated control. The results of the cell count are depicted in FIG. 12, with the various cell lines arranged in descending resistance to 6-thio-dG from left to right. […] The IC50 values for the whole panel of tested cells are depicted in FIG. 13. The IC50 values for tested cells are depicted as a column scatter graph in FIG. 14.

HCT116 cells [1] = assay: Tumor growth in xenograft animal model with HCT116 cells; assay type: in vivo, mice; conditions: 2 mg/kg IP every two days, 6 injections
Description: Doses of 2 mg/kg of 6-thio-dG and 2 mg/kg of 6-thio-G were IP injected every two days for a total of 6 injections into mice. DMSO injections were used for the control. The volume of the tumor was measured.

HCT116 cells [2] = system: HCT116 cells
Description: Following the treatment cells were seeded at different densities and the cultured for 10 days.

[3] = system: HCC4017 paclitaxel/carboplatin resistant cell line; assay: 6-thio-dG on HCC4017 paclitaxel/carboplatin resistant line; assay type: cell-based, human; conditions: 1, 3, 10 μM
Description: as §2

H1993 cells = assay: Sensitization by 5-azacytidine pretreatment, H1993; assay type: cell-based, human; conditions: Homo sapiens, NCI-H1993, 500 nM 5-azacytidine one week, then 6-thio-dG one week, read-out: IC50 of 6-thio-dG after 5-azacytidine pretreatment
Description: All three resistant cell lines were pre-treated with 500 nM of the demethylating agent 5-azacytidine for one week. Following the 5-azacytidine pretreatment, each resistant cell line was treated with 9 different concentrations (0.01 to 1000 micromolar) of 6-thio-dG for one week. Cells were then evaluation for growth/death.

H1693 = assay: 6-thio-dG on H1693 parental and paclitaxel/carboplatin resistant lines; assay type: cell-based, human; conditions: 1, 3, 10 μM
Description: as §2

HCC2429 = assay: GI 50 determination, HCC2429; assay type: cell-based; conditions: Homo sapiens
Description: as §1

H2882 = assay: GI 50 determination, H2882; assay type: cell-based; conditions: Homo sapiens, NCI-H2882
Description: as §1

A549 = assay: GI 50 determination, A549; assay type: cell-based; conditions: Homo sapiens
Description: as §1

[4] = system: BJ normal fibroblast cell line; assay: CellTitreGlo survival, 7 days, BJ; assay type: cell-based; conditions: Homo sapiens, 168 h
Description: Four different cell lines were treated with nine different doses of 6-thio-dG for 7 days. HCT116 colon cancer cell line (FIG. 9A), HCEC1 normal colonic cell line (FIG. 9C), A549 non-small cell lung cancer cell line (FIG. 9B), and BJ normal fibroblast cell line (FIG. 9D) were each treated. Survival fraction was measured by CellTitreGlo luminescent cell viability assay (Promega).

HCT116 cells [5] = system: HCT116 cells; remark: listed apart in the source
Description: For long-term cellular experiments, HCT116 (1,000 cells/cm^2) and BJ (10,000 cells/cm^2) cells were fed with 6-thio-dG (1, 3, 10 μM) containing medium every three days. The cells were counted and replated every week for 10-16 weeks. Additionally, HCT116 cells (1,000 cells/cm^2) were fed with 6-thio-G (1, 3, 10 μM) every three days and each week cells were counted, collected for TRF (Telomere Restriction Fragment) analysis and replated. HCT116 cells, following treatment with 10 μM 6-thio-dG for 12 weeks, were then treated with a combination of 10 μM 6-thio-dG and 3 μM GRN163L for 2-4 weeks.

BJ fibroblast cells = assay: Cell morphology and cell count after one week, BJ fibroblasts; assay type: cell-based, human; conditions: normal BJ fibroblasts; 3 μM twice during one week
Description: Cancer HCT116 and normal BJ fibroblast cells were treated with 6-thio-dG (3 μM) and 6-thio-G (3 μM) twice during one week. Following one week of the treatment, cell morphology was monitored, and then the cells were collected and counted.

HCT116 sub clones = assay: 6-thio-dG on HCT116 sub clone cell lines, cell count; assay type: cell-based, human; conditions: for sensitivity (cell count): 3 μM for 4 weeks
Description: In a separate experiment, 31 sub clone cell lines were derived from HCT116 cells that had no prior treatment with 6-thio-dG. […] At the end of one week, a cell count was performed of treated cells and cell percentage calculated relative to control cell count (FIG. 22). […] Four of the sub clone cell lines were further studied for resistance to 6-thio-dG. […] HCT116 Control group represent the main population treated with DMSO:water for 1-4 weeks. At the end of 4 weeks a cell count was performed to quantify cell growth. […] (FIG. 23)

H1993 = assay: NSCLC panel sensitivity to 6-thio-dG, H1993; assay type: cell-based, human
Description: A panel of NSCLC cell lines was tested for sensitivity to 6-thio-dG by performing a cell count after 1 week treatment. Briefly, cells were treated with 3 μM 6-thio-dG every three days for 1 week. Viable cells were counted at the end of treatment. Each 6-thiodG treated cell line was normalized to its DMSO treated control.
Two isogenic pairs of NSCLC cell lines were studied for sensitization to 6-thio-dG treatment.

[6] = mouse, in vivo, 5 mg/kg
Description: Six WT mice were treated with 1.67 mg of 6-thio-dG/kg of body weight daily. Six WT mice were treated with 1.67 mg of 6-thio-G/kg of body weight daily. Six WT mice were treated with 5 mg of 6-thio-dG/kg of body weight daily. Six WT mice were treated with 5 mg of 6-thio-G/kg of body weight daily. The mice were given the appropriate dosage and weighed daily for 25 days.

H2126 = assay: NSCLC panel sensitivity to 6-thio-dG, H2126; assay type: cell-based; conditions: Homo sapiens, NCI-H2126
Description: as §3

## Nc1nc2c(ncn2[C@H]2C[C@H](O)[C@@H](CO)O2)c(=S)[nH]1 [6-thio-dG, 6-thio-2′-deoxyguanosine]
HCT116
  GI50: 1000 nM
HCC827
  GI50: 800 nM
H1819
  sensitivity: resistant to 6-thio-dG
HCC4017
  GI50: 900 nM
H2009
  GI50: 2600 nM
H324
  IC50: 2200 nM
HCT116 cells [1]
  rate of tumor growth (tumor volume): rate of tumor growth was less
HCT116 cells [2]; 3 μM, after 72 hours irradiated, cultured 10 days
  survival fraction: lower than cells treated with 6-thio-G
HCT116 cells [2]; cell titer glow luminescent assay
  cell viability: lower than cells treated with 6-thio-G
[3]
  sensitivity: still sensitive to 6-thio-dG
H1993 cells
  IC50: ~4.1 µM
H1693
  sensitivity: resistant to 6-thio-dG
HCC2429
  GI50: 600 nM
H2882
  GI50: 400 nM
A549
  GI50: 2100 nM
[4]
  IC50: > 100 µM
HCT116 cells [5]; 1 μM or 10 μM every 3 days, 12 weeks
  telomere shortening (TRF): dramatic telomere shortening
HCT116 cells [5]; 10 μM 6-thio-dG for 12 weeks, continued to 16 weeks
  telomere length on continued treatment (TRF): exhibited stablized telomeres
HCT116 cells [5]; 1, 3, 10 μM, weekly over 10 weeks
  acquisition of resistance (cell growth): begin to acquire resistance to the treatment by the third week
HCT116 cells [5]; 12 weeks 6-thio-dG, then normal medium without drug 2-4 weeks
  telomere length after drug removal (TRF): remained about the same as after 12 week of 6-thio-dG treatment
BJ fibroblast cells
  morphology and cell counts: only slightly affected
HCT116 sub clones; HCT116 clone #5
  sensitivity (cell count): remained sensitive for the duration of the experiment
HCT116 sub clones; HCT116 clone #8, 3 μM every three days for one week
  sensitivity (cell count relative to control): became intrinsically resistant to 6-thio-dG treatment
HCT116 sub clones; HCT116 clone #8
  sensitivity (cell count): maintained resistance for the duration of the treatment
HCT116 sub clones; HCT116 clone #15
  sensitivity (cell count): remained sensitive for the duration of the experiment
HCT116 sub clones; HCT116 sub clone #31
  sensitivity (cell count): acquired resistance and by week 4 showed cell growth indistinguishable from controls
H1993; H1993, 3 μM every three days for 1 week, normalized to DMSO control
  survival rate: greater than 50%
H1993; Homo sapiens, NCI-H1993
  IC50: > 100 µM
[6]
  weight loss: only modest weight loss
H2126
  IC50: 3 to 7 µM
